Results as given in patent publication US7172875B2, “Identifying inhibitors of intracellular protein fibrillization” (The Ohio State University Research Foundation, priority 2003, dated 2007).
One block for each compound: values may come before it.

Tests used:
[1] = CMC measurements for SDS (Corrin-Harkins analysis of CMC depression); type: physicochemical; settings: literature values
Protocol: CMC values for SDS were estimated at 37° C. using N-phenyl-1-naphthylamine as described previously, except that various concentrations of protamine, histone, α-synuclein, or htau40 were included with the samples. Detergent stock solutions were prepared in 1:1 water isopropanol.
Analytical Methods. Dependence of detergent CMC on protein concentration was fit to the empirical Corrin-Harkins equation: log CMC=−kCH(log n)+bCH (1) where n is the molar concentration of protein or salt and kCH and bCH are constants. The slope of these curves, kCH, approximates the proportion of detergent micelles that are ionized.

[2] = molecular target: T1, α-synuclein (Homo sapiens, UniProt P37840); test: α-synuclein polymerization, electron microscopy; type: biochemical; settings: 37° C.; standard polymerization conditions
T1 construct: His-tag; made in house
Protocol: (§1) α-synuclein Polymerization Assays. Under standard conditions, α-synuclein (4–70 μM) was incubated with AA or other polymerization inducers (25–3000 μM) in Assembly Buffer (10 mM HEPES, pH 7.4, 100 mM NaCl, 5 mM DTT) at 37° C. for 3–26 h, without agitation. Various inducer concentrations were prepared by serial dilution of stock solutions. Control reactions were normalized for 1:1 H2O isopropanol vehicle, which was limited to 5% in all reactions. Samples were processed for electron microscopy and fluorescence spectroscopy as described below.
Electron Microscopy. Aliquots of polymerization reactions were taken, treated with 2% glutaraldehyde (final concentration), mounted on formvar/carbon coated 300 mesh grids, and negatively stained with 2% uranyl acetate as described previously (King et al., 1999). Images were viewed in a Phillips CM 12 transmission electron microscope operated at 65 kV. Random images were captured on film at 8,000–22,000X magnification, digitized at 600 dots-per-inch resolution, and imported into Optimas 6.5.1 for quantification of filament lengths and numbers. Individual filaments were defined as any object greater than 50 nm in its long axis and were counted manually.

[3] = molecular target: T2, htau40 (Homo sapiens, UniProt P10636); test: tau aggregation assay, electron microscopy quantification of filament lengths; type: biochemical; settings: 10 μM concentration; data not shown
T2 construct: His-tag; made in house
Protocol: Aggregation assays. Under standard conditions, htau40 (4 μM) was incubated without agitation in Assembly Buffer (10 mM HEPES, pH 7.4, 100 mM NaCl, 5 mM dithiothreitol) at 37° C. for up to 168 h in the presence or absence of fibrillization inducer (AA, alkyl sulfate detergents, or carboxylate modified polystyrene beads). All samples incubated for more than 24 h were kept under argon in parafilm-sealed tubes. Samples were processed for assay by electron microscopy as described below.
Electron Microscopy Assays. […] Random images were viewed in a Phillips CM 12 transmission electron microscope operated at 65 kV, captured on film at 8,000–100,000-fold magnification, digitized at 600 dots-per-inch resolution, and imported into Optimas 6.5.1 for quantification of filament lengths and numbers. Individual filaments (defined as any object greater than 50 nm in its long axis with both ends visible in the field of view) were counted manually. […]
[formula] where y is total filament length (50 nm cutoff) measured at time t, yo is total filament length at time zero, t50 is time to 50% maximum fibrillization, A is the maximum total filament length at equilibrium, and kapp is the apparent first order rate constant for fibril growth in units of time^−1. […]

[4] = molecular target: T2, htau40; settings: synthetic filaments aggregated 3 h with AA; Ref. 12; cited from earlier work
[5] = molecular target: T2, htau40; test: Disaggregation of preaggregated tau followed by ThS fluorescence; type: biochemical
[6] = molecular target: T1, α-synuclein; test: α-synuclein polymerization, Thioflavin T assay; type: biochemical
Protocol: as §1
Thioflavin T assay. α-synuclein (4–70 μM) was incubated in Assembly Buffer in the presence of 20 μM thioflavin T, with or without assembly inducers, in 96-well plates. Aggregation was monitored by following thioflavin T fluorescence (λex=[…]; in a Flex Station plate reader (Molecular Devices, Sunnyvale, Calif.).

T2 sequence (P10636 1-441 isoform P10636-8): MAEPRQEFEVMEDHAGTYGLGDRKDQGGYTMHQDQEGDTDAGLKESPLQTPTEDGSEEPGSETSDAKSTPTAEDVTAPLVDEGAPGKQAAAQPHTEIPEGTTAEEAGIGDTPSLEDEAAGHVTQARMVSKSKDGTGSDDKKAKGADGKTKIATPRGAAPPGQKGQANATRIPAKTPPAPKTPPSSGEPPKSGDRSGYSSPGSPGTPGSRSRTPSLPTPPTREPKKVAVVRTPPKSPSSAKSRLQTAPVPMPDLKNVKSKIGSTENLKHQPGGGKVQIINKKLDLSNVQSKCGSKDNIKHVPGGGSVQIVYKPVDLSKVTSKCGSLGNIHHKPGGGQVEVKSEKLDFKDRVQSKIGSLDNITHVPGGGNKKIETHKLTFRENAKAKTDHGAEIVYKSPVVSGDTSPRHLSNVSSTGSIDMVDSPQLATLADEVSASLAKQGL

Compound: uteroglobulin^4-14: hydrophobic undecapeptide of neutral net charge with two positive charges; literature values (PSFQRVIETLL; UniProt P11684 25-35, looked up, fragment)
potency of CMC depression relative to NaCl on a molar basis [1]: 1000 fold

Compound: Phosphatidylserine
induction of α-synuclein polymerization seen by electron microscopy [2]: Abundant filaments and/or filamentous conglomerates

Compound: CCCCCCCCCCCCOS(=O)(=O)[O-].[Na+] [C12H25SO4Na]
threshold inducer concentration for induction of α-synuclein fibrillization ([6]; 16 h at 37° C., α-synuclein 5-30 μM): approximately 100 μM

Compound: Heparin
induction of α-synuclein polymerization seen by electron microscopy [2]: little measurable polymerization
Thioflavin T signal ([6]; heparin 25–3000 μM saccharide monomer, both forms of heparin): < 600 counts
induction of α-synuclein fibrillization (Thioflavin T fluorescence) ([6]; α-synuclein 30 μM, 16 h at 37° C.): only weakly

Now from value to compound, other results behind:

induction of α-synuclein polymerization seen by electron microscopy [2]: second in potency
Compound: phosphatidic acid

inhibition of tau fibrillization [3]: not inhibitory
Compound: thioflavin S [ThS]

induction of α-synuclein polymerization seen by electron microscopy [2]: least efficient inducer
Compound: phosphatidylcholine

induction of α-synuclein polymerization seen by electron microscopy [2]: induced
decay slower than dilution in buffer alone ([5]; 50 μM arachidonic acid): 50 fold
first order decay rate of ThS fluorescence after 20-fold dilution ([5]; additive in Assembly Buffer: 50 μM arachidonic acid or 2 μM htau40): 0.5 h⁻¹
Compound: CCCCC/C=C\C/C=C\C/C=C\C/C=C\CCCC(=O)O [AA, Arachidonic acid]
slope constant b of exponential filament length distribution [4]: −5.4±0.2 μm^−1
